Data from PubChem BioAssay (NCI).
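All cell lines were grown in 96-well plates and treated with compound for 48 hours. Abbreviation: GI50, concentration required for 50% inhibition of growth. TGI marks complete inhibition of growth.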

Experiments:
Assay in all cases: NCI anticancer screen, dose series, 48 h
[1] = system: BT-549 breast
[2] = system: HT29 colon
[3] = system: A549 NSCLC
[4] = system: MOLT-4 leukemia
[5] = system: SK-MEL-28 melanoma
[6] = system: LOX IMVI melanoma
[7] = system: A498 renal
[8] = system: MALME-3M melanoma
[9] = system: HCT-116 colon
[10] = system: DU-145 prostate

Compound	TGI [1] [µM]	TGI [2] [µM]	TGI [3] [µM]	TGI [4] [µM]	TGI [5] [µM]	TGI [6] [µM]	TGI [7] [µM]	TGI [8] [µM]	TGI [9] [µM]	TGI [10] [µM]	GI50 [1] [µM]	GI50 [2] [µM]	GI50 [3] [µM]	GI50 [4] [µM]	GI50 [5] [µM]	GI50 [6] [µM]	GI50 [7] [µM]	GI50 [8] [µM]	GI50 [9] [µM]	GI50 [10] [µM]
O=C(O)c1nc(-c2ccccc2)[nH]c1C(=O)O	35.9	20.2	29.3	9.64	30.2	9.47	29.1	30.6	16	28.2										
C[C@@H]1CC[C@H]2C(C(O)CCCCC(O)C3=C(C(F)(F)F)O[C@@H]4O[C@@]5(C)CC[C@H]6[C@H](C)CC[C@@H]3[C@@]46OO5)=C(C(F)(F)F)O[C@@H]3O[C@@]4(C)CC[C@@H]1[C@]32OO4 (stereo partly specified)	> 100	> 100	> 100	> 100	> 100	11.8	> 100	> 100	> 100	> 100	80.5	13.6	8.87	6.35	86.7	3.12	45.6	44.7	7.17	99.9
CC(C)C(OC(=O)c1ccc(NCc2cc(O)ccc2O)cc1)C(C)C	2.23	16.6	20.7	0.956	3.23	2.31	9.58	3.3	14	20.9										
COC(=O)C(Cc1ccccc1)NP(=O)(O)OCC1OC(n2cc(F)c(=O)[nH]c2=O)CC1O (stereo unspecified)	> 100	> 100	> 100	> 93.9	> 100	> 100	> 100	> 100	> 100	> 100										
COc1ccc2nc3cc([N+](=O)[O-])ccc3c(Nc3ccc(S(=O)(=O)NC(C)=O)cc3)c2c1	> 100	> 100	> 100	> 100	> 100	> 100	> 100	> 100	> 100	> 100										
CCOC(=O)c1nc2ccc(C(F)(F)F)cc2nc1Oc1cc(OC)cc(OC)c1	> 100	> 100	> 100	> 100	> 100	> 100	> 100	> 100	> 100	> 100										
N#Cc1ccccc1-c1nc2c3c(c(N)ccc3n1)C(=O)c1ccccc1-2	> 100	> 100	> 100	> 100	> 100	> 100	> 100	> 100	> 100	> 100										
COc1ccc(C)cc1Nc1nnc(-c2ccccc2N)s1	> 100	> 100	> 100	15	> 100	> 100	> 100	> 100	> 100	> 100										
CSc1n[nH]c(N)c1C(=O)Nc1ccc(C)cc1	> 100	> 100	> 100	> 100	> 100	> 100	82.7	> 100	> 100	> 100										
COC1OC2COC1(OC)C1OC(C)(C)OC21 (stereo unspecified)	> 100	> 100	> 100	> 100	> 100		> 100	> 100	> 100	> 100										
CCNC(=O)c1cc(/C=C/c2ccc([N+](=O)[O-])o2)nc2ccccc12	> 100	> 100	> 100	> 95.4	71.4	> 100	71	> 52.5	> 100	> 100										
COc1ccc(-n2c(=O)n(C)c(=O)n2-c2ccc(OC)cc2)cc1	> 100	> 100	> 100	> 100	> 100	> 100	> 100		> 100	> 100										
CCOC(=O)c1cc2c3c(c(C(C)=O)c(O)c2[nH]1)N(CC(C)CC)CC3 (stereo unspecified)	> 100	> 100	> 100	> 100	> 100	> 100	> 100	81.4	> 100	> 100										
Cc1c2c(n(CCc3ccc(Cl)cc3)c1C)NC(c1ccccc1)C(C#N)S2(=O)=O (stereo unspecified)	> 100	> 65.9	> 100	11.6	> 100	> 75	> 100	> 80.2	> 100	> 100										
O=C(Nc1ccccc1)N(CCCCN(Cc1ccccc1)C(=O)Nc1ccccc1)Cc1ccccc1	> 100	> 100	> 100	> 100	> 100	> 100	> 100	> 100	> 100	> 100										
CC(=O)Oc1c2oc3ccc(Cl)cc3c(=O)c2c(O)c2ccsc12	> 100	> 100	> 100		> 100	> 100	> 100	> 100	> 100	> 100										
O=c1ccn(CC2(CO)CC(Cc3ccccc3)C2)c(=O)[nH]1 (stereo unspecified)	> 100	> 100	> 100	> 100	> 100	> 100	> 100	> 100	> 100	> 100										
C/C(Nc1ccc(F)cc1)=C1/CCOC1=O	> 100	> 100	> 100	> 100	> 100	> 100	> 100	> 100	> 100	> 100										
C(CCCCc1nnc(N2CCCCC2)o1)CCCc1nnc(N2CCCCC2)o1	> 100	> 100	> 100	> 100	> 100	> 100	> 100	> 100	> 100	> 100										
S=C1SCN(Cc2ccco2)CN1c1ccc(Br)cc1	44	39.5	54.3	47.4	43.1	13	66.1	35.3	42.2	> 100										
COc1ccc(-c2cc(-c3ccc(Nc4ccnc5cc(Cl)ccc45)cc3)[nH]c(=O)c2C#N)c2ccccc12	71.7		> 52.9	6.17	42.3		49.7	8.01		> 32.7										
COC(=O)[C@H]1CO[C@H]2C/C(C)=C/CC/C(C)=C/CC[C@@]3(C)O[C@@H]3C[C@H]21	33.8	> 50	> 50	28.7	34.9		> 50		24.9	> 50										
O=C(Cn1c(C(=O)/C=C/c2cccs2)nc2ccccc21)c1ccc(Cl)cc1	63.6	56.9	> 100		> 100	27.3	57.9	54.7	39.5	> 100										
COc1ccccc1NC(=O)CC(=O)N1N=C(C)C(N=Nc2ccc(C(=O)O)cc2)C1=O (stereo unspecified)	> 100	> 100	> 100		> 100	> 100	> 100	> 100	> 100	> 100										
Cc1cc(N2CCCC2)nc(N(CCNc2ccnc3cc(Cl)ccc23)Cc2ccco2)n1	> 100	> 100	> 100		> 100	10.4	7.79	80.7	> 100	> 100	5.74	1.68	5.9		3.94	2.66	1.92	4.13	1.91	6.72
NNC(=O)Cn1c2ccc(Br)cc2c2nc3ccccc3nc21	> 100	> 100	> 100	> 100	> 100		> 100			> 100										
CC1(C)CC(=O)c2c(nc3ccc4ccccc4c3c2-c2ccc(NC(=O)CCCCCCCCC(=O)Nc3ccc(-c4c5c(nc6ccc7ccccc7c46)CC(C)(C)CC5=O)cc3)cc2)C1	> 100	> 100	> 100	> 100	> 100	> 100	> 100		> 100	> 100										
CN1CCN(CCCBr)CC1	> 100	> 100	> 100		> 100	> 100	> 100	> 100	> 100	> 100										
CCOC(=O)c1cc2c(C(=O)c3ccc([N+](=O)[O-])cc3)c(C(C)=O)ccc2[nH]1	> 100	> 100	> 100	> 100	> 100	> 100	> 100		> 100	> 100										
N#Cc1c(-c2ccc(Cl)cc2)c2c(n(C3OC(CO)C(O)C(O)C3O)c1=S)CCC2 (stereo unspecified)	65	> 100	> 100	29	32.9	34.3		51.8	98.4	> 100										
